Data taken from the supplement of paper PMC8612539.

Test system: Pasteurella multocida
Assay: minimum inhibitory concentration (MIC)
Method: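 Broth microdilution MIC (Sensititre BOPO7F bovine plate, CLSI methods) of 19 antimicrobials against field isolates of P. multocida, M. haemolytica, H. somni (deep nasopharyngeal swabs) and E. coli, Enterococcus spp. (rectal swabs) from weaned dairy heifers. Incubation 16-24 h at 35 C. MIC is the lowest concentration preventing visible growth. Values with <= or > lie at the tested range limits. Trimethoprim-sulfamethoxazole is given as the trimethoprim component of a 1:19 mixture.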

[1] = isolate (source animal id): 104
[2] = isolate (source animal id): 115
[3] = isolate (source animal id): 117
[4] = isolate (source animal id): 118
[5] = isolate (source animal id): 121
[6] = isolate (source animal id): 124
[7] = isolate (source animal id): 125
[8] = isolate (source animal id): 128
[9] = isolate (source animal id): 131
[10] = isolate (source animal id): 135
[11] = isolate (source animal id): 136
[12] = isolate (source animal id): 140
[13] = isolate (source animal id): 144
[14] = isolate (source animal id): 146
[15] = isolate (source animal id): 150
[16] = isolate (source animal id): 151
[17] = isolate (source animal id): 153
[18] = isolate (source animal id): 155
[19] = isolate (source animal id): 157
[20] = isolate (source animal id): 160
[21] = isolate (source animal id): 164
[22] = isolate (source animal id): 165
[23] = isolate (source animal id): 167
[24] = isolate (source animal id): 168
[25] = isolate (source animal id): 169
[26] = isolate (source animal id): 170
[27] = isolate (source animal id): 171
[28] = isolate (source animal id): 172
[29] = isolate (source animal id): 173
[30] = isolate (source animal id): 174
[31] = isolate (source animal id): 175
[32] = isolate (source animal id): 176
[33] = isolate (source animal id): 177
[34] = isolate (source animal id): 178
[35] = isolate (source animal id): 179
[36] = isolate (source animal id): 182
[37] = isolate (source animal id): 192
[38] = isolate (source animal id): 193
[39] = isolate (source animal id): 195
[40] = isolate (source animal id): 196
[41] = isolate (source animal id): 197
[42] = isolate (source animal id): 198
[43] = isolate (source animal id): 199
[44] = isolate (source animal id): 200
[45] = isolate (source animal id): 201
[46] = isolate (source animal id): 203
[47] = isolate (source animal id): 204
[48] = isolate (source animal id): 205
[49] = isolate (source animal id): 206
[50] = isolate (source animal id): 207
[51] = isolate (source animal id): 208
[52] = isolate (source animal id): 209
[53] = isolate (source animal id): 210
[54] = isolate (source animal id): 213
[55] = isolate (source animal id): 216
[56] = isolate (source animal id): 223
[57] = isolate (source animal id): 227
[58] = isolate (source animal id): 229
[59] = isolate (source animal id): 233
[60] = isolate (source animal id): 234
[61] = isolate (source animal id): 237
[62] = isolate (source animal id): 241
[63] = isolate (source animal id): 245
[64] = isolate (source animal id): 247
[65] = isolate (source animal id): 250
[66] = isolate (source animal id): 254
[67] = isolate (source animal id): 255
[68] = isolate (source animal id): 258
[69] = isolate (source animal id): 261
[70] = isolate (source animal id): 262
[71] = isolate (source animal id): 269
[72] = isolate (source animal id): 270
[73] = isolate (source animal id): 274
[74] = isolate (source animal id): 275
[75] = isolate (source animal id): 276
[76] = isolate (source animal id): 277
[77] = isolate (source animal id): 278
[78] = isolate (source animal id): 279
[79] = isolate (source animal id): 280
[80] = isolate (source animal id): 284
[81] = isolate (source animal id): 285
[82] = isolate (source animal id): 287
[83] = isolate (source animal id): 290
[84] = isolate (source animal id): 294
[85] = isolate (source animal id): 295
[86] = isolate (source animal id): 296
[87] = isolate (source animal id): 307
[88] = isolate (source animal id): 310
[89] = isolate (source animal id): 311
[90] = isolate (source animal id): 312
[91] = isolate (source animal id): 313
[92] = isolate (source animal id): 315
[93] = isolate (source animal id): 316

Measured: minimum inhibitory concentration

CC1(C)S[C@@H]2[C@H](NC(=O)Cc3ccccc3)C(=O)N2[C@H]1C(=O)O [Penicillin]
> 8 µg/mL: [26]
≤ 0.12 µg/mL: isolate (source animal id): 23 | isolate (source animal id): 98 | [1] | [2] | [4] | [8] | [13] | [14] | [15] | [16] | [17] | [19] | [20] | [21] | [22] | [23] | [25] | [27] | [28] | [30] | [31] | [32] | [33] | [34] | [35] | [36] | [37] | [38] | [39] | [40] | [41] | [43] | [44] | [45] | [46] | [47] | [49] | [50] | [51] | [52] | [54] | [55] | [57] | [58] | [59] | [60] | [61] | [62] | [63] | [64] | [65] | [67] | [68] | [69] | [70] | [71] | [72] | [73] | [76] | [77] | [86] | [90]
0.25 µg/mL: isolate (source animal id): 10 | isolate (source animal id): 11 | isolate (source animal id): 12 | isolate (source animal id): 19 | isolate (source animal id): 26 | [3] | [5] | [6] | [7] | [9] | [10] | [11] | [12] | [18] | [24] | [29] | [42] | [48] | [53] | [56] | [66] | [74] | [75] | [78] | [79] | [80] | [81] | [82] | [83] | [84] | [85] | [87] | [88] | [89] | [91] | [92] | [93]

CCCN1C[C@H](C)[C@@H](O)[C@](C)(O)[C@@H](CC)OC(=O)[C@H](C)[C@@H](O[C@H]2C[C@@](C)(OC)[C@@H](O)[C@H](C)O2)[C@H](C)[C@@H](O[C@@H]2O[C@H](C)C[C@H](N(C)C)[C@H]2O)[C@](C)(O)C[C@H]1C [Gamithromycin]
≤ 1 µg/mL: [23] | [25] | [27] | [28] | [30] | [31] | [32] | [33] | [34] | [35] | [37] | [38] | [40] | [43] | [44] | [45] | [46] | [47] | [49] | [50] | [51] | [52] | [54] | [55] | [57] | [68] | [71] | [76]
> 8 µg/mL: [1] | [2] | [5] | [8] | [9] | [10] | [11] | [12] | [15] | [16] | [17] | [20] | [21] | [22] | [29] | [42] | [48] | [53] | [79] | [80] | [81] | [85] | [90] | [91] | [92] | [93]
4 µg/mL: isolate (source animal id): 23 | isolate (source animal id): 26 | [19] | [36]
2 µg/mL: [26] | [39] | [41]
8 µg/mL: isolate (source animal id): 10 | isolate (source animal id): 11 | isolate (source animal id): 12 | isolate (source animal id): 19 | isolate (source animal id): 98 | [3] | [4] | [6] | [7] | [13] | [14] | [18] | [24] | [56] | [58] | [59] | [60] | [61] | [62] | [63] | [64] | [65] | [66] | [67] | [69] | [70] | [72] | [73] | [74] | [75] | [77] | [78] | [82] | [83] | [84] | [86] | [87] | [88] | [89]
